Our source for the IC50 values is patent publication US11634412B2, “3-phosphoglycerate dehydrogenase inhibitors and uses thereof” (Raze Therapeutics, Inc., priority 2016, dated 2023).

The structures appear in SMILES notation.

The target in the test is T1, Full length (FL) 3-Phosphoglycerate Dehydrogenase (PHGDH) (Homo sapiens, UniProt O43175).
T1 construct: Full length (FL) 3-Phosphoglycerate Dehydrogenase (PHGDH) Diaphorase coupled assay (500 uM NAD)
T1 sequence (O43175 1-533): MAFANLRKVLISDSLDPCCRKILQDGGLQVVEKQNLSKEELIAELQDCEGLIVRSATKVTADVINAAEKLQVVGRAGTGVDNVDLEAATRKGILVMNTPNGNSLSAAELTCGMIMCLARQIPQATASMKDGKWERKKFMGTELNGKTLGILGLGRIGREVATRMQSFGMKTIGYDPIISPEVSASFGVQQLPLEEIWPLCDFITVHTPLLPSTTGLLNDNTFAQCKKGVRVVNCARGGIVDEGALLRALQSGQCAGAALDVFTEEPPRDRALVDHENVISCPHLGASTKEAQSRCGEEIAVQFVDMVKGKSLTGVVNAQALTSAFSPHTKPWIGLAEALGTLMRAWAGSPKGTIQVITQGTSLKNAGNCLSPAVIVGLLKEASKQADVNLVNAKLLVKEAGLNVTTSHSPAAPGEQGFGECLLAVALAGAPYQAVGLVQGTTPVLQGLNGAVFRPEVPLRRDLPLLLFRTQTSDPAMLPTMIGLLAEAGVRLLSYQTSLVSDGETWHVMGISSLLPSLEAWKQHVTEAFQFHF
Description: Full length (FL) PHGDH Diaphorase coupled assay (500 uM NAD). The class given is biochemical. The settings on record: full-length PHGDH 5 nM, 30° C. 60 minutes, resorufin fluorescence. How it is done: Full length (FL) 3-Phosphoglycerate Dehydrogenase (PHGDH) Diaphorase coupled assay (500 uM NAD)
PHGDH activity was determined by detecting the NADH produced during the reaction. Diaphorase was used to catalyze the oxidation of NADH with the concomitant reduction of resazurin to the fluorescent product resorufin. Resorufin fluorescence quantitatively reflected the production of NADH by the PHGDH reaction. To drive the forward reaction, two enzymes in the serine synthesis pathway subsequent to PHGDH, Phosphoserine aminotransferase (PSAT1) and phosphoserine phosphatase (PSPH) were also added to the reaction.
Briefly, serial dilution of compounds were incubated in a volume of 20 μL in 384 well plates with the assay mixture containing 5 nM PHGDH, 500 nM PSAT1, 500 nM PSPH, 500 μM NAD^+, 80 uM 3-phosphoglycerate, 1 mM glutamate, 57 uM Resazurin and 0.2 mg/ml Diaphorase in assay buffer containing 50 mM Trisethanoloamine (TEA) pH8.0, 10 mM MgCl2, 0.01% Tween-20 and 0.05% Bovine Serum Albumin (BSA). The plate was then incubated at 30° C. for 60 minutes and resorufin fluorescence was measured at emission wavelength 598 nm following excitation at 525 nm. The positive control consisted of the complete reaction mixture with 4% DMSO and was set to 0% inhibition.
In the case of `CC(C(=O)O)c1ccc(C2(NC(=O)c3cc4c(Cl)c(Cl)ccc4n3C)COC2)cc1` (racemic) [I-68 e58], the half-maximal inhibitory concentration (IC50) lay within 1 to 1000 nM.

`CC(C(=O)O)c1ccc(C2(NC(=O)c3cc4c(Cl)c(Cl)ccc4n3C)COC2)c(Cl)c1` (stereo not shown) [I-33 e62] registered a 50% inhibitory concentration (IC50) of 1 to 1000 nM.

The molecule `Cn1c(C(=O)NC2(c3ccc(C(=O)O)cc3)CCOC2)cc2c(Cl)c(Cl)c(OCC3CNC(=O)O3)cc21` (racemic) [I-111 e95] came in with a concentration for half-maximal inhibition (IC50) of 1 to 1000 nM.

The molecule `COc1cc2c(cc(C(=O)NC3(c4ccc(C(C)(C)C(=O)O)cc4F)CCOC3)n2C)c(Cl)c1Cl` (racemic) [I-53 e80] gave an IC50 of 1 to 1000 nM.

Consider `CCCC(C(=O)O)c1ccc(C2(NC(=O)c3cc4c(Cl)c(OC)ccc4n3C)COC2)cc1` (racemic) [I-31 e112], for which the IC50 was in the range of 1 to 1000 nM.

As for `COc1ccc2c(cc(C(=O)NC3(c4ccc(C(C)(C)C(=O)O)cc4)COC3)n2C)c1Cl` [I-27 e110], the IC50 lay within 1 to 1000 nM.

Consider `Cn1c(C(=O)NC2(c3ccc(CC(=O)O)cc3Cl)COC2)cc2c(Cl)c(Cl)ccc21` [I-84 e49], for which the half-maximal inhibitory concentration (IC50) lay in the range of 1 to 1000 nM.

Consider `CCCC(C(=O)O)c1ccc(C2(NC(=O)c3cc4c(Cl)c(Cl)ccc4n3C)CCOC2)cc1` (racemic) [I-18 e84], for which the IC50 was 1 to 1000 nM.

Molecule `COc1ccc2c(cc(C(=O)NC3(c4ccc(C(C)(C)C(=O)O)cc4F)CCOC3)n2C)c1Cl` (racemic) [I-39 e81] displayed an IC50 of 1 to 1000 nM.

As for `COc1ccc2c(cc(C(=O)NC3(c4ccc(C(C(=O)O)C(C)C)cc4)COC3)n2C)c1Cl` (racemic) [I-21 e127], the IC50 lay within 1 to 1000 nM.

On to `Cn1c(C(=O)NC2(c3ccc(C(=O)O)cc3Cl)COC2)cc2c(Cl)c(Cl)ccc21` [I-85 e48], for which the IC50 lay in the range of 1 to 1000 nM.

As to `CCCC(C(=O)O)c1ccc(C2(NC(=O)c3cc4c(Cl)c(Cl)c(OC)cc4n3C)CCOC2)cc1` (racemic) [I-17 e85], the IC50 was in the range of 1 to 1000 nM.

Consider `Cn1c(C(=O)NC2(c3ccc(Cc4nnn[nH]4)cc3)COC2)cc2c(Cl)c(Cl)ccc21` [I-41 e92], for which the IC50 was in the range of 1 to 1000 nM.

The molecule `Cn1c(C(=O)NC2(c3ccc(C(C(=O)O)C4CCC4)cc3)COC2)cc2c(Cl)c(Cl)ccc21` (racemic) [I-8 e116] gave an IC50 of 1 to 1000 nM.

As for `Cn1c(C(=O)NC2(c3ccc(CC(=O)O)cc3C#N)CCOC2)cc2c(Cl)c(Cl)ccc21` (racemic) [I-71 e158, (±)-2-[3-Cyano-4-[3-[(4,5-dichloro-1-methyl-indole-2-carbonyl)amino]tetrahydro-furan-3-yl]phenyl]acetic acid], the IC50 was in the range of 1000 to 5000 nM.

In turn, `Cn1c(C(=O)NC2(c3ccc(C(=O)O)cc3)CCOC2)cc2c(Cl)c(C3CC3)ccc21` (racemic) [I-96 e36] had an IC50 of 1 to 1000 nM.

In turn, `Cc1cc(C(=O)O)ccc1C1(NC(=O)c2cc3c(Cl)c(Cl)ccc3n2C)COC1` [I-83 e50] yielded a half-maximal inhibitory concentration (IC50) of 1 to 1000 nM.

On to `COc1cc(Cl)c2cc(C(=O)NC3(c4ccc(C(=O)O)cc4)CCOC3)n(C)c2c1` (racemic) [I-114 e34], for which the IC50 is 1000 to 5000 nM.

In the case of `COc1cc2c(cc(C(=O)NC3(c4ccc(C(=O)O)cc4F)COC3)n2C)c(Cl)c1C` [I-50 e75], the 50% inhibitory concentration (IC50) was in the range of 1 to 1000 nM.

As for `COc1cc2c(cc(C(=O)NC3(c4ccc(C(=O)O)cc4)CCOC3)n2C)c(Cl)c1Cl` (racemic) [I-115 e33], the half-maximal inhibitory concentration (IC50) fell in the range of 1 to 1000 nM.

Consider `COc1ccc2c(cc(C(=O)NC3(c4ccc(C(C(=O)O)C5CCNCC5)cc4)COC3)n2C)c1Cl` (racemic) [I-159 e121], for which the IC50 was 1 to 1000 nM.

In the case of `COc1cc2c(cc(C(=O)NC3(c4ccc(C(C)C(=O)O)cc4)COC3)n2C)c(Cl)c1Cl` (stereo not shown) [I-48 e71], the IC50 was 1 to 1000 nM.

As to `CN1CC(COc2cc3c(cc(C(=O)NC4(c5ccc(C(=O)O)cc5)CCOC4)n3C)c(Cl)c2Cl)CC1=O` (racemic) [I-102 e100], the IC50 was 1 to 1000 nM.

Take `Cn1c(C(=O)NC2(c3ccc(C(C)(C)C(=O)O)cc3)CCOC2)cc2c(Cl)c(Cl)ccc21` (racemic) [I-87 e37]: the 50% inhibitory concentration (IC50) is 1 to 1000 nM.

In the case of `CCC(C(=O)O)c1ccc(C2(NC(=O)c3cc4c(Cl)c(Cl)ccc4n3C)CCOC2)cc1` (racemic) [I-72 e56], the half-inhibitory concentration (IC50) fell in the range of 1 to 1000 nM.

With `COc1cc2c(cc(C(=O)NC3(c4ccc(C(=O)O)cc4Cl)COC3)n2C)c(Cl)c1F` [I-44 e76], the IC50 was 1 to 1000 nM.

In turn, `Cn1c(C(=O)NC2(c3ccc(C4(C(=O)O)CC4)cc3)COC2)cc2c(Cl)c(Cl)ccc21` [I-28 e108] gave a half-inhibitory concentration (IC50) of 1 to 1000 nM.

In turn, `Cn1c(C(=O)NC2(c3ccc(C(=O)O)cc3)CCOC2)cc2c(Cl)c(Cl)c(OCC3CCCO3)cc21` (racemic) [I-94 e98] had an IC50 of 1 to 1000 nM.

As to `Cn1c(C(=O)NC2(c3ccc(C(CC4CC4)C(=O)O)cc3)COC2)cc2c(Cl)c(Cl)ccc21` (racemic) [I-3 e124], the 50% inhibitory concentration (IC50) fell in the range of 1 to 1000 nM.

`Cn1c(C(=O)NC2(c3ccc(C(=O)O)nc3)CCOC2)cc2c(Cl)c(Cl)ccc21` (racemic) [I-73 e28] registered an IC50 of 1000 to 5000 nM.

Take `Cn1c(C(=O)NC2(c3ccc(C(=O)O)cc3)CCN(c3ccccc3)C2)cc2c(Cl)c(Cl)ccc21` (racemic) [I-121 e21]: the IC50 lay in the range of 1000 to 5000 nM.

For `CCC(C(=O)O)c1ccc(C2(NC(=O)c3cc4c(Cl)c(Cl)c(OC)cc4n3C)CCOC2)cc1` (racemic) [I-23 e82], the IC50 fell in the range of 1 to 1000 nM.

`COc1cc2c(cc(C(=O)NC3(c4ccc(CC(=O)O)cc4F)COC3)n2C)c(Cl)c1F` [I-61 e47] showed an IC50 of 1 to 1000 nM.

`CCC(=O)NS(=O)(=O)c1ccc(C2(NC(=O)c3cc4c(Cl)c(OC)ccc4n3C)COC2)cc1` [I-161 e164, 4-Chloro-5-methoxy-1-methyl-N-(3-(4-(N-propanoylsulfamoyl)phenyl)-oxetan-3-yl)-1H-indole-2-carboxamide] had a half-maximal inhibitory concentration (IC50) of 1 to 1000 nM.

In turn, `COc1ccc2c(cc(C(=O)NC3(c4ccc(C5(C(=O)O)CC5)cc4)CCOC3)n2C)c1Cl` (racemic) [I-58 e70] gave an IC50 of 1 to 1000 nM.

Take `Cc1ccc2c(cc(C(=O)NC3(c4ccc(C(=O)O)cc4)CCOC3)n2C)c1Cl` (racemic) [I-116 e32]: the IC50 is 1 to 1000 nM.

As to `COc1cc2c(cc(C(=O)NC3(c4ccc(C(C(=O)O)C5CC5)cc4)CCOC3)n2C)c(Cl)c1Cl` (racemic) [I-163 e163, (±)-2-Cyclopropyl-2-(4-(3-(4,5-dichloro-6-methoxy-1-methyl-1H-indole-2-carboxamido)tetrahydrofuran-3-yl)phenyl)acetic acid], the half-maximal inhibitory concentration (IC50) was in the range of 1 to 1000 nM.

The molecule `COc1cc2c(cc(C(=O)NC3(c4ccc(C(=O)O)cc4F)COC3)n2C)c(Cl)c1Cl` [I-76 e42] showed an IC50 of 1 to 1000 nM.

In turn, `Cn1c(C(=O)NC2(c3ccc(C(=O)O)cc3Cl)CCOC2)cc2c(Cl)c(Cl)ccc21` (racemic) [I-107 e24] had a 50% inhibitory concentration (IC50) of 1 to 1000 nM.

For the molecule `COc1ccc2c(cc(C(=O)NC3(c4ccc(C(C)(C)C(=O)O)cc4)CCOC3)n2C)c1Cl` (racemic) [I-77 e63], the IC50 lay in the range of 1 to 1000 nM.

For the molecule `COc1cc(CC(=O)O)ccc1C1(NC(=O)c2cc3c(Cl)c(Cl)ccc3n2C)COC1` [I-69 e52], the IC50 lay within 5000 to 10000 nM.

As to `COc1ccc2c(cc(C(=O)NC3(c4ccc(C(=O)O)cc4F)COC3)n2C)c1Cl` [I-75 e66], the 50% inhibitory concentration (IC50) was in the range of 1 to 1000 nM.

`Cn1c(C(=O)N[C@@]2(c3ccc(CC(=O)O)cc3)CCOC2)cc2c(Cl)c(Cl)ccc21` (single isomer, unassigned) [I-108 or I-109 e151 peak 2] registered a 50% inhibitory concentration (IC50) of 1 to 1000 nM.

Regarding `CCOc1cc2c(cc(C(=O)NC3(c4ccc(C(=O)O)cc4)CCOC3)n2C)c(Cl)c1Cl` (racemic) [I-104 e97], the IC50 lay within 1 to 1000 nM.

Molecule `Cn1c(C(=O)N[C@]2(c3ccc(CC(=O)O)cc3)CCOC2)cc2c(Cl)c(Cl)ccc21` (single isomer, unassigned) [I-109 or I-108 e150 peak 1] returned an IC50 of 1 to 1000 nM.

As to `Cn1c(C(=O)NC2(c3ccc(CC(=O)O)cc3F)COC2)cc2c(Cl)c(Cl)ccc21` [I-90 e43], the half-inhibitory concentration (IC50) is 1 to 1000 nM.

Take `Cn1c(C(=O)NC2(c3cccc(CC(=O)O)c3)CCOC2)cc2c(Cl)c(Cl)ccc21` (racemic) [I-119 e153, (±)-2-[3-[3-[(4,5-Dichloro-1-methyl-indole-2-carbonyl)amino]tetrahydrofuran-3-yl]phenyl]acetic acid]: the IC50 lay within 1 to 1000 nM.

Turning to `CCC(C(=O)O)c1ccc(C2(NC(=O)c3cc4c(Cl)c(OC)ccc4n3C)COC2)cc1` (racemic) [I-43 e126], the IC50 was 1 to 1000 nM.

`CCC(C(=O)O)c1ccc(C2(NC(=O)c3cc4c(Cl)c(Cl)c(OC)cc4n3C)COC2)cc1` (racemic) [I-14 e113] registered an IC50 of 1 to 1000 nM.

Broadly, the IC50 is the midpoint of a concentration-inhibition curve. A low value points to greater potency in that assay.
